Laboratory results: PMC12238723, “Phase I Clinical Trial of CVL218, a Novel PARP1/2 Inhibitor, in Patients with Advanced Solid Tumors” (MedComm, 2025)

Assays:
[1] = tested on: human ether‐a‐go‐go‐related gene channel; design: method as in PMID 27926532, PMID 36283983; settings: cited from earlier work
[2] = Plasma PK after a single oral dose (Cycle 0 Day 1); assay type: in vivo, patients
Experimental: CVL218 was administered orally, and this dose‐escalation trial included nine dose levels: 100 mg QD (50 mg BID), 200 mg QD (100 mg BID), 400 mg QD (200 mg BID), 700 mg QD (350 mg BID), 1000 mg QD (500 mg BID), 1200 mg QD (600 mg BID), 1400 mg QD (700 mg BID), 1700 mg QD (850 mg BID), and 2000 mg QD (1000 mg BID). Patients enrolled in the study received a single oral dose on the first day, followed by continuous multiple dosing (twice a day taking 12 h apart) after 72 h, with the treatment cycle lasting 4 weeks. The period during which patients received a single dose is designated as cycle 0 (C0), lasting 72 h. After this period, patients begin multiple dosing, referred to as cycle 1 (C1). An initial accelerated titration design was employed for the three lowest dose groups, and the “3+3” design was applied starting with the 300 mg BID cohort.
A clinical PK study of CVL218 was conducted, involving blood samples collection during single‐dose administration (before treatment and 0.5, 1, 2, 3, 4, 5, 6, 8, 10, 12, and 24 h after treatment on C0D1) and multiple dosing (before treatment and 0.5, 1, 2, 3, 4, 5, 6, 8, 10, and 12 h after treatment on C1D1; before treatment on C1D8, C1D15, and C1D22; before treatment and 0.5, 1, 2, 3, 4, 5, 6, 8, 10, and 12 h after treatment on C1D28)
Single‐dose and multiple‐dose PK parameters included C max, T max, elimination half‐life (T 1/2), AUC0– t , AUC0–inf, oral clearance (CL/F), and apparent volume of distribution (V z/F) for CVL218. Tumor response was assessed per RECIST 1.1. ORR was defined as proportion of patients with a CR or PR on at least one visit, while DCR was defined as proportion of patients with a CR or PR or SD. PFS was defined as the time from the first dose of either drug to investigator assessed radiologic PD or to death of any cause. PFS would be censored at the time of last tumor assessment.
Subjects who received at least one dose of CVL218 with postadministration safety records were included in safety analysis set. Subjects who received at least one dose of CVL218 with at least one evaluable PK parameter were included in PK analysis set. Per‐protocol set were used for efficacy analysis. Descriptive statistics of safety were presented per CTCAE v5.0. The PK parameters T max and T 1/2 were shown as the median (min, max) and mean ± SD, respectively. A two‐sided p < 0.05 was considered to indicate statistical significance. Statistical analysis was performed by using GraphPad prism 8.0.2 and R‐4.3.3.

[3] = single dose C0D1, 100mg QD, n 1
[4] = single dose C0D1, 200mg QD, n 1
[5] = single dose C0D1, 400mg QD, n 1
[6] = single dose C0D1, 700mg QD, n 4
[7] = single dose C0D1, 1000mg QD, n 4
[8] = single dose C0D1, 1200mg QD, n 4
[9] = single dose C0D1, 1400mg QD, n 6
[10] = single dose C0D1, 1700mg QD, n 5

## CNCc1ccc(-c2cc3cc(F)cc(C(N)=O)c3o2)cc1.Cl [CVL218]
[1]
  inhibitory activity on the hERG channel: without inhibitory activity
[2]; [3]
  AUC0-inf, Geometric Mean: 0.231 µg·h/mL
  AUC0-t, Geometric Mean: 0.207 µg·h/mL
  Cl/F, Geometric Mean: 432000.0 mL/h
  Cmax, Geometric Mean: 0.0409 µg/mL
  T1/2, Mean: 3.6 h
  Vz/F, Geometric Mean: 2270000.0 mL
[2]; [4]
  AUC0-inf, Geometric Mean: 1.36 µg·h/mL
  AUC0-t, Geometric Mean: 1.31 µg·h/mL
  Cl/F, Geometric Mean: 147000.0 mL/h
  Cmax, Geometric Mean: 0.218 µg/mL
  T1/2, Mean: 5.1 h
  Vz/F, Geometric Mean: 1080000.0 mL
[2]; [5]
  AUC0-inf, Geometric Mean: 2.01 µg·h/mL
  AUC0-t, Geometric Mean: 1.9 µg·h/mL
  Cl/F, Geometric Mean: 199000.0 mL/h
  Cmax, Geometric Mean: 0.334 µg/mL
  T1/2, Mean: 6.0 h
  Vz/F, Geometric Mean: 1710000.0 mL
[2]; [6]
  AUC0-inf, Geometric Mean: 3.45 µg·h/mL
  AUC0-t, Geometric Mean: 3.26 µg·h/mL
  Cl/F, Geometric Mean: 203000.0 mL/h
  Cmax, Geometric Mean: 0.36 µg/mL
  T1/2, Mean: 6.3 h
  Vz/F, Geometric Mean: 1700000.0 mL
[2]; [7]
  AUC0-inf, Geometric Mean: 4.82 µg·h/mL
  AUC0-t, Geometric Mean: 4.095 µg·h/mL
  Cl/F, Geometric Mean: 212000.0 mL/h
  Cmax, Geometric Mean: 0.5795 µg/mL
  T1/2, Mean: 6.2 h
  Vz/F, Geometric Mean: 2205000.0 mL
[2]; [8]
  AUC0-inf, Geometric Mean: 4.415 µg·h/mL
  AUC0-t, Geometric Mean: 4.175 µg·h/mL
  Cl/F, Geometric Mean: 276000.0 mL/h
  Cmax, Geometric Mean: 0.5475 µg/mL
  T1/2, Mean: 6.3 h
  Vz/F, Geometric Mean: 2155000.0 mL
[2]; [9]
  AUC0-inf, Geometric Mean: 5.36 µg·h/mL
  AUC0-t, Geometric Mean: 5.19 µg·h/mL
  Cl/F, Geometric Mean: 274500.0 mL/h
  Cmax, Geometric Mean: 0.633 µg/mL
  T1/2, Mean: 4.7 h
  Vz/F, Geometric Mean: 1920000.0 mL
[2]; [10]
  AUC0-inf, Geometric Mean: 4.18 µg·h/mL
  AUC0-t, Geometric Mean: 4.07 µg·h/mL
  Cl/F, Geometric Mean: 407000.0 mL/h
  Cmax, Geometric Mean: 0.408 µg/mL
  T1/2, Mean: 5.8 h
  Vz/F, Geometric Mean: 2780000.0 mL
[2]; single dose, range over cohorts
  median Tmax: 1 to 4 h
[2]; single oral dose, range over cohorts
  mean half-life: 3.6 to 6.3 h
